Data as given in US12667585B2, “Immunotherapeutic nanoparticles and methods relating thereto” (Wake Forest University Health Sciences, priority 2019, dated 2026).

Test system: BMDM, BMDC or AM cells
Test: Real time RT-PCR of type I IFN and other inflammatory response genes
Type: cell-based, C57BL/6 mouse
Settings: 100 nM cGAMP, 4 h
Protocol: Real time RT-PCR of type I IFN and other inflammatory response genes induced by NP-cGAMP. BMDM, BMDC or AM cells […] were seeded into 6-well plates and cultured for 24 h. The cells were then incubated at 37° C. with free cGAMP or NP-cGAMP (100 nM cGAMP) suspended in complete culture medium for 4 h. All cellular RNA was collected using TRIzol reagent (Thermo Fisher). One microgram of total RNA was transcribed into cDNA using High-Capacity cDNA Reverse Transcription Kit (Thermo Fisher), and real-time quantitative PCR (qPCR) was performed using PowerUp SYBR Green Master Mix (Thermo Fisher) with primers for amplification of Gapdh, Ifnb1, Cxcl9, Cxcl10, Tnf, Il6, Il12b, Il1b, Ifna1, Il10, and Tgfb1 genes. mRNA levels were normalized against the housekeeping gene GAPDH.

Nc1nc2c(ncn2[C@@H]2O[C@@H]3COP(=O)(O)O[C@H]4[C@@H](O)[C@H](n5cnc6c(N)ncnc65)O[C@@H]4COP(=O)(O)O[C@@H]2[C@@H]3O)c(=O)[nH]1 [free cGAMP, cyclic [G(2′,5′)pA(3′,5′)p]]
expression of Ifnb1, Ifna1 and other proinflammatory genes (Tnf, Il1b, Il6, Il12b, Cxcl9,10): only a modest increase
